Data from ChEMBL document CHEMBL4346676, “Base promoted synthesis of novel indole-dithiocarbamate compounds as potential anti-inflammatory therapeutic agents for treatment of acute lung injury” (Eur J Med Chem, 2019).
Activity calls are given as the source filed them. The rule behind the calls is not given here.

How the values were obtained:
[1] = test system: Peritoneal macrophage; assay: Cytotoxicity against C57BL/6J mouse Primary peritoneal macrophages assessed as cell viability at 1 uM measured after 24 hrs by MTT assay; type: cell-based
[2] = test system: Peritoneal macrophage; assay: Antiinflammatory activity in C57BL/6J mouse Primary peritoneal macrophages assessed as suppression of LPS-stimulated TNF-alpha expression at 1 uM preincubated for 30 mins followed by LPS stimulation measured after 24 hrs by ELISA; type: functional, cell-based
[3] = test system: Peritoneal macrophage; assay: Antiinflammatory activity in C57BL/6J mouse Primary peritoneal macrophages assessed as suppression of LPS-stimulated IL-6 expression at 1 uM preincubated for 30 mins followed by LPS stimulation measured after 24 hrs by ELISA; type: functional, cell-based
[4] = test system: Peritoneal macrophage; assay: Antiinflammatory activity in C57BL/6J mouse Primary peritoneal macrophages assessed as inhibition of LPS-stimulated TNF-alpha expression preincubated for 30 mins followed by LPS stimulation measured after 24 hrs by ELISA; type: functional, cell-based
[5] = test system: Peritoneal macrophage; assay: Antiinflammatory activity in C57BL/6J mouse Primary peritoneal macrophages assessed as inhibition of LPS-stimulated IL-6 expression preincubated for 30 mins followed by LPS stimulation measured after 24 hrs by ELISA; type: functional, cell-based
[6] = test system: Mus musculus; assay: Antiinflammatory activity in LPS-induced C57BL/6 mouse model of acute lung injury assessed as reduction in lung wet/dry ratio at 2.5 to 5 mg/kg, po pretreated for 3 days followed by LPS challenge measured after 6 hrs; type: functional, organism-based
[7] = test system: Mus musculus; assay: Antiinflammatory activity in LPS-induced C57BL/6 mouse model of acute lung injury assessed as reduction in total protein levels in BALF at 2.5 to 5 mg/kg, po pretreated for 3 days followed by LPS challenge measured after 6 hrs; type: functional, organism-based
[8] = test system: Mus musculus; assay: Antiinflammatory activity in LPS-induced C57BL/6 mouse model of acute lung injury assessed as inhibition of inflammatory cell infiltration at 2.5 to 5 mg/kg, po pretreated for 3 days followed by LPS challenge measured after 6 hrs by hematoxylin and eosin staining based microscopic analysis; type: functional, organism-based
[9] = test system: Mus musculus; assay: Antiinflammatory activity in LPS-induced C57BL/6 mouse model of acute lung injury assessed as inhibition of interstitial edema at 2.5 to 5 mg/kg, po pretreated for 3 days followed by LPS challenge measured after 6 hrs by hematoxylin and eosin staining based microscopic analysis; type: functional, organism-based
[10] = test system: Mus musculus; assay: Antiinflammatory activity in LPS-induced C57BL/6 mouse model of acute lung injury assessed as inhibition of interalveolar septal thickening at 2.5 to 5 mg/kg, po pretreated for 3 days followed by LPS challenge measured after 6 hrs by hematoxylin and eosin staining based microscopic analysis; type: functional, organism-based
[11] = test system: Mus musculus; assay: Antiinflammatory activity in LPS-induced C57BL/6 mouse model of acute lung injury assessed as inhibition of destruction of alveolar structure at 2.5 to 5 mg/kg, po pretreated for 3 days followed by LPS challenge measured after 6 hrs by hematoxylin and eosin staining based microscopic analysis; type: functional, organism-based
[12] = test system: Mus musculus; assay: Antiinflammatory activity in LPS-induced C57BL/6 mouse model of acute lung injury assessed as inhibition of destruction of alveolar hemorrhage at 2.5 to 5 mg/kg, po pretreated for 3 days followed by LPS challenge measured after 6 hrs by hematoxylin and eosin staining based microscopic analysis; type: functional, organism-based
[13] = test system: Mus musculus; assay: Antiinflammatory activity in LPS-induced C57BL/6 mouse model of acute lung injury assessed as suppression of macrophage infiltration at 2.5 to 5 mg/kg, po pretreated for 3 days followed by LPS challenge measured after 6 hrs by F4/80/hematoxylin staining based microscopic analysis; type: functional, organism-based
[14] = test system: Mus musculus; assay: Antiinflammatory activity in LPS-induced C57BL/6 mouse model of acute lung injury assessed as reduction in neutrophil count in BALF at 2.5 to 5 mg/kg, po pretreated for 3 days followed by LPS challenge measured after 6 hrs; type: functional, organism-based
[15] = test system: Mus musculus; assay: Antiinflammatory activity in LPS-induced C57BL/6 mouse model of acute lung injury assessed as reduction in IL-6 level in BALF at 2.5 to 5 mg/kg, po pretreated for 3 days followed by LPS challenge measured after 6 hrs; type: functional, organism-based
[16] = test system: Mus musculus; assay: Antiinflammatory activity in LPS-induced C57BL/6 mouse model of acute lung injury assessed as reduction in IL-6 level in serum at 2.5 to 5 mg/kg, po pretreated for 3 days followed by LPS challenge measured after 6 hrs; type: functional, organism-based
[17] = test system: Mus musculus; assay: Antiinflammatory activity in LPS-induced C57BL/6 mouse model of acute lung injury assessed as reduction in TNF-alpha level in BALF at 2.5 to 5 mg/kg, po pretreated for 3 days followed by LPS challenge measured after 6 hrs; type: functional, organism-based
[18] = test system: Mus musculus; assay: Antiinflammatory activity in LPS-induced C57BL/6 mouse model of acute lung injury assessed as reduction in TNF-alpha level in serum at 2.5 to 5 mg/kg, po pretreated for 3 days followed by LPS challenge measured after 6 hrs; type: functional, organism-based
[19] = test system: Mus musculus; assay: Antiinflammatory activity in LPS-induced C57BL/6 mouse model of acute lung injury assessed as reduction in total protein level in BALF at 2.5 to 5 mg/kg, po pretreated for 3 days followed by LPS challenge measured after 6 hrs; type: functional, organism-based
[20] = test system: Mus musculus; assay: Antiinflammatory activity in LPS-induced C57BL/6 mouse model of acute lung injury assessed as reduction in ICAM1 mRNA expression at 2.5 to 5 mg/kg, po pretreated for 3 days followed by LPS challenge measured after 6 hrs by SYBR green dye based RT-qPCR analysis; type: functional, organism-based
[21] = test system: Mus musculus; assay: Antiinflammatory activity in LPS-induced C57BL/6 mouse model of acute lung injury assessed as reduction in VCAM1 mRNA expression at 2.5 to 5 mg/kg, po pretreated for 3 days followed by LPS challenge measured after 6 hrs by SYBR green dye based RT-qPCR analysis; type: functional, organism-based
[22] = test system: Mus musculus; assay: Antiinflammatory activity in LPS-induced C57BL/6 mouse model of acute lung injury assessed as reduction in IL-1beta mRNA expression at 2.5 to 5 mg/kg, po pretreated for 3 days followed by LPS challenge measured after 6 hrs by SYBR green dye based RT-qPCR analysis; type: functional, organism-based
[23] = test system: Mus musculus; assay: Antiinflammatory activity in LPS-induced C57BL/6 mouse model of acute lung injury assessed as reduction in TNF-alpha mRNA expression at 2.5 to 5 mg/kg, po pretreated for 3 days followed by LPS challenge measured after 6 hrs by SYBR green dye based RT-qPCR analysis; type: functional, organism-based
[24] = test system: Mus musculus; assay: Antiinflammatory activity in LPS-induced C57BL/6 mouse model of acute lung injury assessed as reduction in IL-6 mRNA expression at 2.5 to 5 mg/kg, po pretreated for 3 days followed by LPS challenge measured after 6 hrs by SYBR green dye based RT-qPCR; type: functional, organism-based
[25] = test system: Mus musculus; assay: Antiinflammatory activity in po dosed C57BL/6 mouse model of acute lung injury assessed as reduction in LPS-stimulated ICAM1 mRNA expression pretreated for 3 days followed by LPS challenge measured after 6 hrs by SYBR green dye based RT-qPCR analysis; type: functional, organism-based
[26] = test system: Mus musculus; assay: Antiinflammatory activity in po dosed C57BL/6 mouse model of acute lung injury assessed as reduction in LPS-stimulated VCAM1 mRNA expression pretreated for 3 days followed by LPS challenge measured after 6 hrs by SYBR green dye based RT-qPCR analysis; type: functional, organism-based
[27] = test system: Mus musculus; assay: Antiinflammatory activity in po dosed C57BL/6 mouse model of acute lung injury assessed as reduction in LPS-stimulated IL-1beta mRNA expression pretreated for 3 days followed by LPS challenge measured after 6 hrs by SYBR green dye based RT-qPCR; type: functional, organism-based
[28] = test system: Mus musculus; assay: Antiinflammatory activity in po dosed C57BL/6 mouse model of acute lung injury assessed as reduction in LPS-stimulated TNF-alpha mRNA expression pretreated for 3 days followed by LPS challenge measured after 6 hrs by SYBR green dye based RT-qPCR; type: functional, organism-based
[29] = test system: Mus musculus; assay: Antiinflammatory activity in po dosed C57BL/6 mouse model of acute lung injury assessed as reduction in LPS-stimulated IL-6 mRNA expression pretreated for 3 days followed by LPS challenge measured after 6 hrs by SYBR green dye based RT-qPCR; type: functional, organism-based

## CN(C)C(=S)Sn1ccc2cc(Cl)ccc21
[1]
  Activity: Non-Toxic

## CCOC(=O)C1CCCN(C(=S)Sn2ccc3ccccc32)C1 (configuration not stated)
[1]
  Activity: Non-Toxic

## Cc1cc2ccccc2n1SC(=S)N(C)C
[1]
  Activity: Non-Toxic

## S=C(Sn1ccc2ccccc21)N1CCCCC1
[1]
  Activity: Non-Toxic

## CC1CCCC(C)N1C(=S)Sn1ccc2ccccc21 (configuration not stated)
[1]
  Activity: Non-Toxic

## S=C(Sn1ccc2ccccc21)N(Cc1ccccc1)Cc1ccccc1
[1]
  Activity: Non-Toxic

## Cc1ccc2c(c1)cc(C)n2SC(=S)N(C)C
[1]
  Activity: Non-Toxic

## COC(=O)c1ccc2ccn(SC(=S)N(C)C)c2c1
[1]
  Activity: Non-Toxic

## CN1CCN(C(=S)Sn2ccc3ccccc32)CC1
[1]
  Activity: Non-Toxic

## CN(C)C(=S)Sn1ccc2cc(Br)ccc21
[1]
  Activity: Non-Toxic

## S=C(Sn1ccc2ccccc21)N1CCCC1
[1]
  Activity: Non-Toxic

## S=C(Sn1ccc2ccccc21)N1CCSCC1
[2]
  inhibition: Active
[3]
  inhibition: Active
[1]
  Activity: Non-Toxic
[4]
  IC50: 14.1 nM
  inhibition: Dose-dependent effect
[5]
  IC50: 87.4 nM
  inhibition: Dose-dependent effect

## CN(C)C(=S)Sn1ccc2ccc(N)cc21
[1]
  Activity: Non-Toxic

## S=C(Sn1ccc2ccccc21)N1CCC(Cc2ccccc2)CC1
[1]
  Activity: Non-Toxic

## CN(C)C(=S)Sn1ccc2c(Br)cccc21
[1]
  Activity: Non-Toxic

## S=C(Sn1ccc2ccccc21)N1CCCCCC1
[2]
  inhibition: Active
[3]
  inhibition: Active
[1]
  Activity: Non-Toxic
[4]
  IC50: 114 nM
  inhibition: Dose-dependent effect
[5]
  IC50: 87.6 nM
  inhibition: Dose-dependent effect

## COc1cccc2c1ccn2SC(=S)N(C)C
[2]
  inhibition: Active
[3]
  inhibition: Active
[1]
  Activity: Non-Toxic
[4]
  IC50: 107 nM
  inhibition: Dose-dependent effect
[5]
  IC50: 70.7 nM
  inhibition: Dose-dependent effect

## CCN(CC)C(=S)Sn1ccc2ccccc21
[1]
  Activity: Non-Toxic

## CN(C)C(=S)Sn1ccc2cc(F)ccc21
[1]
  Activity: Non-Toxic

## Cc1ccc2ccn(SC(=S)N(C)C)c2c1
[1]
  Activity: Non-Toxic

## CN(C)C(=S)Sn1ccc2ccccc21
[1]
  Activity: Non-Toxic

## Cc1c(C)n(SC(=S)N(C)C)c2ccccc12
[1]
  Activity: Non-Toxic

## S=C(Sn1ccc2ccccc21)N1CCOCC1
[1]
  Activity: Non-Toxic

## CC1CCN(C(=S)Sn2ccc3ccccc32)CC1
[1]
  Activity: Non-Toxic

## CCN(CC)C(=S)Sn1c(C)cc2ccccc21
[1]
  Activity: Non-Toxic

## COc1cccc2ccn(SC(=S)N(C)C)c12
[1]
  Activity: Non-Toxic

## S=C(Sn1ccc2ccccc21)N1CCc2ccccc2C1
[1]
  Activity: Non-Toxic

## Cc1cn(SC(=S)N(C)C)c2ccccc12
[2]
  inhibition: Active
[3]
  inhibition: Active
[1]
  Activity: Non-Toxic
[4]
  IC50: 28.1 nM
  inhibition: Dose-dependent effect
[5]
  IC50: 14.6 nM
  inhibition: Dose-dependent effect
[6]
  Activity: Active
[7]
  Activity: Active
[8]
  Activity: Active
[9]
  Activity: Active
[10]
  Activity: Active
[11]
  Activity: Active
[12]
  Activity: Active
[13]
  Activity: Active
[14]
  Activity: Active
[15]
  Activity: Active
[16]
  Activity: Active
[17]
  Activity: Active
[18]
  Activity: Active
[19]
  Activity: Active
[20]
  inhibition: Active
[21]
  inhibition: Active
[22]
  inhibition: Active
[23]
  inhibition: Active
[24]
  inhibition: Active
[25]
  inhibition: Dose-dependent effect
[26]
  inhibition: Dose-dependent effect
[27]
  inhibition: Dose-dependent effect
[28]
  inhibition: Dose-dependent effect
[29]
  inhibition: Dose-dependent effect

## COc1ccc2c(ccn2SC(=S)N(C)C)c1
[1]
  Activity: Non-Toxic
